Results as given in article PMC9865890, “N-Derivatives of (Z)-Methyl 3-(4-Oxo-2-thioxothiazolidin-5-ylidene)methyl)-1H-indole-2-carboxylates as Antimicrobial Agents—In Silico and In Vitro Evaluation” (Pharmaceuticals, 2023).
Values after ≈ are worked out from the molar mass of the structure shown. Where two headings read alike, the source gives them in different places.

Experiments:
[1] = system: Bacillus cereus (clinical isolate); experiment: Antibacterial microdilution (MIC/MBC); type: cell-based; details: B.c. (B. cereus)
Experimental: (§1) The synthesized compounds (Table 1) were evaluated for their antibacterial activity against a panel of eight species using a microdilution method with ampicillin and streptomycin as reference drugs. […] The order of activity can be presented as: 8 > 11 > 2 > 1 > 12 > 3 > 17 > 7 > 5 > 13 > 14 > 16 > 9 > 4 = 6 > 15 > 10. […] Cloacae. […] The most sensitive bacteria appeared to be En. cloacae, while E. coli was the most resistant one, followed by M. flavus.
(§2) The following Gram-negative bacteria: Escherichia coli (ATCC 35210), Enterobacter cloacae (clinical isolate), Salmonella typhimurium (ATCC 13311), as well as Gram-positive bacteria: Listeria monocytogenes (NCTC 7973), Bacillus cereus (clinical isolate), and Staphylococcus aureus (ATCC 6538) were used. The organisms were obtained from the Mycological Laboratory, Department of Plant Physiology, Institute for Biological Research “Siniša Stankovic”, Belgrade, Serbia. The minimum inhibitory (MIC) and minimum bactericidal (MBC) concentrations were determined by the modified microdilution method, as previously reported.

[2] = system: Enterobacter cloacae (clinical isolate); experiment: Antibacterial microdilution (MIC/MBC); type: cell-based; details: Enterobacter cloacae, En.cl (En. cloacae); for MIC: read-out: MIC
Experimental: as §1, §2

[3] = system: Escherichia coli (ATCC 35210); experiment: Antibacterial microdilution (MIC/MBC); type: cell-based; details: Escherichia coli, ATCC35210, E. coli; for MIC: read-out: MIC
Experimental: as §1, §2

[4] = system: Listeria monocytogenes (NCTC 7973); experiment: Antibacterial microdilution (MIC/MBC); type: cell-based; details: Listeria monocytogenes, NCTC7973, L.m. (L. monocytogenes); for MIC: read-out: MIC
Experimental: as §1, §2

M. flavus = experiment: Antibacterial microdilution (MIC/MBC); type: cell-based; details: Micrococcus flavus; M.f. (M. flavus)
Experimental: as §1, §2

P. aeruginosa = experiment: Antibacterial microdilution (MIC/MBC); type: cell-based; details: Pseudomonas aeruginosa, P.a. (P. aeruginosa); for MIC: read-out: MIC
Experimental: as §1, §2

[5] = system: Salmonella typhimurium (ATCC 13311); experiment: Antibacterial microdilution (MIC/MBC); type: cell-based; details: S.t. (S. typhimurium)
Experimental: as §1, §2

[6] = system: Staphylococcus aureus (ATCC 6538); experiment: Antibacterial microdilution (MIC/MBC); type: cell-based; details: S.a. (S. aureus)
Experimental: as §1, §2

A. ochraceus = experiment: Antifungal bioassay (MIC/MFC); type: cell-based; details: Aspergillus ochraceus, A.o. (A. ochraceus); for MIC: read-out: MIC
Experimental: (§3) For the antifungal bioassays, six fungi were used: […] The organisms were obtained from the Mycological Laboratory, Department of Plant Physiology, Institute for Biological Research “Siniša Stankovic”, Belgrade, Serbia. All experiments were performed in duplicate.

[7] = system: Aspergillus fumigatus (ATCC 1022); experiment: Antifungal bioassay (MIC/MFC); type: cell-based; details: ATCC1022, A.f. (A. fumigatus)
Experimental: as §3

[8] = system: Aspergillus versicolor (ATCC 11730); experiment: Antifungal bioassay (MIC/MFC); type: cell-based; details: ATCC11730, A.v. (A. versicolor)
Experimental: as §3

P. ochrochloron = experiment: Antifungal bioassay (MIC/MFC); type: cell-based; details: for MIC: P.o. (P. ochrochloron; text: P. ochramensis); for MFC: P.o. (P. ochrochloron)
Experimental: as §3

[9] = system: Penicillium funiculosum (ATCC 36839); experiment: Antifungal bioassay (MIC/MFC); type: cell-based; details: Talaromyces funiculosus, ATCC36839; P.f. (P. funiculosum)
Experimental: as §3

[10] = system: Trichoderma viride (IAM 5061); experiment: Antifungal bioassay (MIC/MFC); type: cell-based; details: T.v. (T. viride)
Experimental: as §3

[11] = system: Penicillium verrucosum var. cyclopium (food isolate); experiment: Antifungal bioassay (MIC/MFC); type: cell-based
Experimental: For the antifungal bioassays, six fungi were used: Aspergillus niger (ATCC 6275), Aspergillus fumigatus (ATCC 1022), Aspergillus versicolor (ATCC 11730), Penicillium funiculosum (ATCC 36839), Trichoderma viride (IAM 5061), and Penicillium verrucosum var. cyclopium (food isolate). The organisms were obtained from the Mycological Laboratory, Department of Plant Physiology, Institute for Biological Research “Siniša Stankovic”, Belgrade, Serbia. All experiments were performed in duplicate.

[12] = Salmonella enterica, read-out: MIC
[13] = Staphylococcus aureus, ATCC6538
[14] = Staphylococcus aureus, ATCC6538, read-out: MIC
[15] = Penicillium ochrochloron, read-out: MIC
[16] = Trichoderma viride, IAM5061, read-out: MIC

SMILES | MBC ([1]; Bacillus cereus) [µg/mL] | MIC ([1]; Bacillus cereus, read-out: MIC) [µg/mL] | MBC [2] [µg/mL] | MIC [2] [µg/mL] | MBC [3] [µg/mL] | MIC [3] [µg/mL] | MBC [4] [µg/mL] | MIC [4] [µg/mL] | MBC (M. flavus) [µg/mL] | MIC (M. flavus) [µg/mL] | MBC (P. aeruginosa) [µg/mL] | MIC (P. aeruginosa) [µg/mL] | MBC ([5]; Salmonella enterica) [µg/mL] | MIC [5, 12] [µg/mL] | MIC [6] [µg/mL] | MBC [6, 13] [µg/mL] | MIC [6, 14] [µg/mL] | MFC (A. ochraceus) [µg/mL] | MIC (A. ochraceus) [µg/mL] | MFC [7] [µg/mL] | other results
COC(=O)c1[nH]c2ccccc2c1/C=C1\SC(=S)N(N2CCOCC2)C1=O [Compound 6, (Z)-methyl 3-((3-morpholino-4-oxo-2-thioxothiazolidin-5-ylidene)methyl)-1H-indole-2-carboxylate] | 60 ± 6 (≈ 149 µM) | 30 ± 10 (≈ 74.4 µM) | 30 ± 10 (≈ 74.4 µM) | 15 ± 9 (≈ 37.2 µM) | 120 ± 10 (≈ 297 µM) | 60 ± 6 (≈ 149 µM) | 60 ± 6 (≈ 149 µM) | 30 ± 10 (≈ 74.4 µM) | 60 ± 6 (≈ 149 µM) | 45 ± 3 (≈ 112 µM) | 60 ± 6 (≈ 149 µM) | 30 ± 10 (≈ 74.4 µM) | 60 ± 6 (≈ 149 µM) | 30 ± 10 (≈ 74.4 µM) | 15 ± 9 (≈ 37.2 µM) | 30 ± 10 (≈ 74.4 µM) | 15 (≈ 37.2 µM) | 15 ± 3 (≈ 37.2 µM) | 8 ± 0.6 (≈ 19.8 µM) | 120 ± 40 (≈ 297 µM) | MIC [7]: 60 ± 6 µg/mL (≈ 149 µM); MFC [8]: 15 ± 3 µg/mL (≈ 37.2 µM); MIC [8]: 8 ± 0.6 µg/mL (≈ 19.8 µM); MIC (P. ochrochloron): 8 ± 0.6 µg/mL (≈ 19.8 µM); MFC (P. ochrochloron; Penicillium ochrochloron): 15 ± 3 µg/mL (≈ 37.2 µM); MIC (P. ochrochloron; [15]): 8 µg/mL (≈ 19.8 µM); MFC [9]: 30 ± 10 µg/mL (≈ 74.4 µM); MIC [9]: 15 ± 3 µg/mL (≈ 37.2 µM); MIC [10]: 8 ± 0.6 µg/mL (≈ 19.8 µM); MFC ([10]; Trichoderma viride, IAM5061): 15 ± 3 µg/mL (≈ 37.2 µM); MIC [10, 16]: 8 µg/mL (≈ 19.8 µM); MFC [11]: 30 ± 10 µg/mL (≈ 74.4 µM); MIC [11]: 15 ± 3 µg/mL (≈ 37.2 µM); melting point: 278 to 280 °C
COC(=O)c1[nH]c2ccccc2c1/C=C1\SC(=S)N(c2cccc(O)c2)C1=O [Compound 3, (Z)-methyl 3-((3-(3-hydroxyphenyl)-4-oxo-2-thioxothiazolidin-5-ylidene)methyl)-1H-indole-2-carboxylate] | 30 ± 10 (≈ 73.1 µM) | 15 (≈ 36.5 µM) | 30 ± 10 (≈ 73.1 µM) | 15 ± 9 (≈ 36.5 µM) | 30 ± 10 (≈ 73.1 µM) | 22 ± 5 (≈ 53.6 µM) | 60 ± 6 (≈ 146 µM) | 30 ± 10 (≈ 73.1 µM) | 60 ± 6 (≈ 146 µM) | 45 ± 3 (≈ 110 µM) | 60 ± 6 (≈ 146 µM) | 30 ± 10 (≈ 73.1 µM) | 30 ± 10 (≈ 73.1 µM) | 15 (≈ 36.5 µM) | 15 ± 9 (≈ 36.5 µM) | 30 ± 10 (≈ 73.1 µM) | 15 (≈ 36.5 µM) | 15 ± 3 (≈ 36.5 µM) | 8 ± 0.6 (≈ 19.5 µM) | 60 ± 6 (≈ 146 µM) | MIC [1]: 15 ± 9 µg/mL (≈ 36.5 µM); MIC [5]: 15 ± 9 µg/mL (≈ 36.5 µM); MIC [7]: 30 ± 10 µg/mL (≈ 73.1 µM); MFC [8]: 15 ± 3 µg/mL (≈ 36.5 µM); MIC [8]: 8 ± 0.6 µg/mL (≈ 19.5 µM); MFC (P. ochrochloron; Penicillium ochrochloron): 15 ± 3 µg/mL (≈ 36.5 µM); MIC (P. ochrochloron; [15]): 8 ± 0.6 µg/mL (≈ 19.5 µM); MFC [9]: 15 ± 3 µg/mL (≈ 36.5 µM); MIC [9]: 8 ± 0.6 µg/mL (≈ 19.5 µM); MIC [10]: 4 ± 1 µg/mL (≈ 9.74 µM); MFC ([10]; Trichoderma viride, IAM5061): 8 ± 0.6 µg/mL (≈ 19.5 µM); MIC [10, 16]: 4 µg/mL (≈ 9.74 µM); MFC [11]: 30 ± 10 µg/mL (≈ 73.1 µM); MIC [11]: 15 ± 3 µg/mL (≈ 36.5 µM); melting point: 245 to 247 °C
